Experimental data as given in ChEMBL document CHEMBL1681686, “Discovery of N-methyl-1-(1-phenylcyclohexyl)methanamine, a novel triple serotonin, norepinephrine, and dopamine reuptake inhibitor” (Bioorg Med Chem Lett, 2011).

Key:
Type in all cases: ADME, organism-based
Conditions in all cases: in vivo; call rule not given here
Brain [1] = assay: Drug uptake in mouse brain at 30 mg/kg, po; parameters: dose 30 mg/kg, route oral
Plasma [2] = assay: Drug uptake in mouse plasma at 30 mg/kg, po; parameters: dose 30 mg/kg, route oral
Brain [3] = assay: Drug uptake in mouse brain at 3 mg/kg, po; parameters: dose 3 mg/kg, route oral
Plasma [4] = assay: Drug uptake in mouse plasma at 10 mg/kg, po; parameters: dose 10 mg/kg, route oral
Brain [5] = assay: Drug uptake in mouse brain at 10 mg/kg, po; parameters: dose 10 mg/kg, route oral
Plasma [6] = assay: Drug uptake in mouse plasma at 3 mg/kg, po; parameters: dose 3 mg/kg, route oral

Row | Compound | Drug uptake (Brain [1]) | Drug uptake (Plasma [2]) | Drug uptake (Brain [3]) | Drug uptake (Plasma [4]) | Drug uptake (Brain [5]) | Drug uptake (Plasma [6])
1 | CNCC1(c2ccc(Cl)c(Cl)c2)CCCCC1 | Active |  |  |  |  | 
2 | CNCC1(c2ccc(Cl)c(Cl)c2)CCCCC1.Cl | 7464 ng/g | 227 ng/mL | 546 ng/g | 50 ng/mL | 2166 ng/g | 11 ng/mL
3 | CNCC1(c2ccc3ccccc3c2)CCCCC1.Cl | 2175 ng/g | 120 ng/mL | 123 ng/g | 21 ng/mL | 306 ng/g | 8 ng/mL
